Test results as given in patent US12084472B2 (Ardelyx, Inc., priority 2015, dated 2024).

Biological target: T1, human TGR5 (Homo sapiens, UniProt Q8TDU6)
T1 construct: expressed in transfected cells; host or cells: HEK293
T1 sequence (Q8TDU6 1-330): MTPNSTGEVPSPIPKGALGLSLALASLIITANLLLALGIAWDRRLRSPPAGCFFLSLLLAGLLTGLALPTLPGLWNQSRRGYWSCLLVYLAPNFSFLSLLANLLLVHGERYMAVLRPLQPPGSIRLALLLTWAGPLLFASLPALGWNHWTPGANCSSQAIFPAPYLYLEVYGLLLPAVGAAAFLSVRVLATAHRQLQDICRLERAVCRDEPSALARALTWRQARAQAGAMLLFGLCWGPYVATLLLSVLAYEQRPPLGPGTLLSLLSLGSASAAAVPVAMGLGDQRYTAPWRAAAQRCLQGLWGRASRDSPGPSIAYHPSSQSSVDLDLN
Test: Cell-based TGR5 assay (cAMP generation, HTRF)
Conditions: HEK293 cells stably transfected with human TGR5; cAMP by HTRF; 30 minutes at 37° C.; read-out: pEC50 Human TGR5 (converted)
Procedure, shortened: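 First, compounds in 3-fold serial dilution were placed in HBSS with 10 mM HEPES pH 7.4 and 0.5 mM IBMX. Next, human TGR5-expressing HEK293 cells were added and incubated 30 min at 37° C. Finally, cAMP was detected by HTRF and pEC50 derived by logistic fitting.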

`Cc1ccc(SCCCCN(C(=O)[C@@H](O)[C@@H](O)[C@H](O)[C@@H](O)CO)C2CCOCC2)cc1CNC1(c2cnccc2-c2ccccc2OC2CC2)CC1` [Compound I-560, (2S,3S,4R,5S)-N-[4-({3-[({1-[4-(2-cyclopropoxyphenyl)pyridin-3-yl]cyclopropyl}amino)methyl]-4-methylphenyl}sulfanyl)butyl]-2,3,4,5,6-pentahydroxy-N-(oxan-4-yl)hexanamide] and `Cc1ccc(SCCCCN(C(=O)[C@@H](O)[C@@H](O)[C@H](O)[C@@H](O)CO)C2CCOCC2)cc1COC1(c2cnccc2-c2ccccc2OC2CC2)CC1` [Compound I-562, (2S,3S,4R,5S)-N-(4-{[3-({1-[4-(2-cyclopropoxyphenyl)pyridin-3-yl]cyclopropoxy}methyl)-4-methylphenyl]sulfanyl}butyl)-2,3,4,5,6-pentahydroxy-N-(oxan-4-yl)hexanamide] fall in the same range of EC50: 126 to 1000 nM for the first, 126 to 1000 nM for the second.

`O=C(CC1CN(S(=O)(=O)c2ccc(Cl)c(COC3(c4cnccc4-c4ccccc4OC4CC4)CC3)c2)C1)NC[C@H](O)[C@@H](O)[C@H](O)[C@H](O)CO` [Compound I-438, 2-{1-[4-chloro-3-({1-[4-(2-cyclopropoxyphenyl)pyridin-3-yl]cyclopropoxy}methyl)benzenesulfonyl]azetidin-3-yl}-N-[(2S,3R,4R,5R)-2,3,4,5,6-pentahydroxyhexyl]acetamide] and `O=C(NCCOCCS(=O)(=O)c1ccc(Cl)c(COC2(c3cnccc3-c3ccccc3OC3CC3)CC2)c1)NC[C@H](O)[C@@H](O)[C@H](O)[C@H](O)CO` [Compound I-492, 1-[2-(2-[[4-Chloro-3-([l-[4-(2-cyclopropoxyphenyl)pyridin-3-yl]cyclopropoxy]methyl)benzene]sulfonyl]ethoxy)ethyl]-3-[(2S,3R,4R,5R)-2,3,4,5,6-pentahydroxyhexyl]urea] cannot be ordered by EC50: < 100 nM for the first, < 100 nM for the second.

`CC(=O)NCCCN(CCCSc1ccc(Cl)c(CNC2(c3cnccc3-c3ccccc3OC3CC3)CC2)c1)C(=O)[C@@H](O)[C@@H](O)[C@H](O)[C@@H](O)CO` [Compound I-589, (2S,3S,4R,5S)-N-[3-({4-chloro-3-[({1-[4-(2-cyclopropoxyphenyl)pyridin-3-yl]cyclopropyl}amino)methyl]phenyl}sulfanyl)propyl]-N-(3-acetamidopropyl)-2,3,4,5,6-pentahydroxyhexanamide] and `CC(=O)NCCCN(CCCCSc1ccc(Cl)c(CNC2(c3cnccc3-c3ccccc3OC3CC3)CC2)c1)C(=O)[C@@H](O)[C@@H](O)[C@H](O)[C@@H](O)CO` [Compound I-573, (2S,3S,4R,5S)-N-[4-({4-chloro-3-[({1-[4-(2-cyclopropoxyphenyl)pyridin-3-yl]cyclopropyl}amino)methyl]phenyl}sulfanyl)butyl]-N-(3-acetamidopropyl)-2,3,4,5,6-pentahydroxyhexanamide] fall in the same range of EC50: 126 to 1000 nM for the first, 126 to 1000 nM for the second.

First: CC(CCCN(CCCCO)C(=O)[C@@H](O)[C@@H](O)[C@H](O)[C@@H](O)CO)c1ccc(Cl)c(CNC2(c3cnccc3-c3ccccc3OC3CC3)CC2)c1 (stereo partly drawn) [Compound I-283, (2S,3S,4R,5S)-N-(4-{4-chloro-3-[({1-[4-(2-cyclopropoxyphenyl)pyridin-3-yl]cyclopropyl}amino)methyl]phenyl}pentyl)-2,3,4,5,6-pentahydroxy-N-(4-hydroxybutyl)hexanamide]
Second: CC(=O)NCCCCN(CCCCSc1ccc(Cl)c(CNC2(c3cnccc3-c3ccccc3OC3CC3)CC2)c1)C(=O)[C@@H](O)[C@@H](O)[C@H](O)[C@@H](O)CO [Compound I-567, (2S,3S,4R,5S)-N-[4-({4-chloro-3-[({1-[4-(2-cyclopropoxyphenyl)pyridin-3-yl]cyclopropyl}amino)methyl]phenyl}sulfanyl)butyl]-N-(4-acetamidobutyl)-2,3,4,5,6-pentahydroxyhexanamide]
The EC50 of the first is lower: < 100 nM for the first, 126 to 1000 nM for the second.

`Cc1ccc(C(C)CCCNC(=O)NC[C@H](O)[C@@H](O)[C@H](O)[C@H](O)CO)cc1CNC1(c2cnccc2-c2ccccc2OC2CC2)CC1` (stereo partly drawn) [Compound I-271, 1-(4-{3-[({l-[4-(2-cyclopropoxyphenyl)pyridin-3-yl]cyclopropyl}amino)methyl]-4-methylphenyl}pentyl)-3-[(2S,3R,4R,5R)-2,3,4,5,6-pentahydroxyhexyl]urea] and `CC(CCCC(=O)N[C@@H](CO)[C@@H](O)[C@H](O)[C@H](O)CO)c1ccc(Cl)c(CNC2(c3cnccc3-c3ccccc3OC3CC3)CC2)c1` (stereo partly drawn) [Compound I-313, 5-{4-chloro-3-[({1-[4-(2-cyclopropoxyphenyl)pyridin-3-yl]cyclopropyl}amino)methyl]phenyl}-N-[(2S,3R,4S,5R)-1,3,4,5,6-pentahydroxyhexan-2-yl]hexanamide] cannot be ordered by EC50: < 100 nM for the first, < 100 nM for the second.

`O=C(O)CN(C[C@H](O)[C@@H](O)[C@H](O)[C@H](O)CO)C(=O)CCCCc1cc(Cl)c(COC2(c3cnccc3-c3ccccc3OC3CC3)CC2)cc1Cl` [Compound I-87, 2-(5-(2,5-dichloro-4-((1-(4-(2-cyclopropoxyphenyl)pyridin-3-yl)cyclopropoxy)methyl)phenyl)-N-((2S,3R,4R,5R)-2,3,4,5,6-pentahydroxyhexyl)pentanamido)acetic acid] and `O=C(CO)N(CCCCc1cc(Cl)c(COC2(c3cnccc3-c3ccccc3OC3CC3)CC2)cc1Cl)C[C@H](O)[C@@H](O)[C@H](O)[C@H](O)CO` [Compound I-71, N-{4-[2,5-dichloro-4-({1-[4-(2-cyclopropoxyphenyl)pyridin-3-yl]cyclopropoxy}methyl)phenyl]butyl}-2-hydroxy-N-[(2S,3R,4R,5R)-2,3,4,5,6-pentahydroxyhexyl]acetamide] cannot be ordered by EC50: < 100 nM for the first, < 100 nM for the second.

`CN(CCO[C@@H]1O[C@H](CO)[C@@H](O)[C@H](O)[C@H]1O)C(=O)CCCCc1cc(Cl)c(COC2(c3cnccc3-c3ccccc3OC3CC3)CC2)cc1Cl` [Compound I-121, 5-(2,5-dichloro-4-((1-(4-(2-cyclopropoxyphenyl)pyridin-3-yl)cyclopropoxy)methyl)phenyl)-N-methyl-N-(2-(((2R,3R,4S,5S,6R)-3,4,5-trihydroxy-6-(hydroxymethyl)tetrahydro-2H-pyran-2-yl)oxy)ethyl)pentanamide] and `Cc1cc(CNC2(c3cnccc3-c3ccccc3OC3CC3)CC2)c(Cl)cc1CCCCC(=O)N(C)C[C@H](O)[C@@H](O)[C@H](O)[C@H](O)CO` [Compound I-143, 5-{5-chloro-4-[({1-[4-(2-cyclopropoxyphenyl)pyridin-3-yl]cyclopropyl}amino)methyl]-2-methylphenyl}-N-methyl-N-[(2S,3R,4R,5R)-2,3,4,5,6-pentahydroxyhexyl]pentanamide] cannot be ordered by EC50: < 100 nM for the first, < 100 nM for the second.

Compared with `CN(C[C@H](O)[C@@H](O)[C@H](O)[C@H](O)CO)C(=O)CCN(CCC(=O)N(C)C[C@H](O)[C@@H](O)[C@H](O)[C@H](O)CO)C(=O)CCCCc1cc(Cl)c(COC2(c3cnccc3-c3ccccc3OC3CC3)CC2)cc1Cl` [Compound I-169, 5-[2,5-dichloro-4-({1-[4-(2-cyclopropoxyphenyl)pyridin-3-yl]cyclopropoxy}methyl)phenyl]-N,N-bis(2-{methyl[(2S,3R,4R,5R)-2,3,4,5,6-pentahydroxyhexyl]carbamoyl}ethyl)pentanamide], `CC(CCSc1ccc(Cl)c(COC2(c3cnccc3-c3ccccc3OC3CC3)CC2)c1)C(=O)N(C)C[C@H](O)[C@@H](O)[C@H](O)[C@H](O)CO` (stereo partly drawn) [Compound I-689, 4-{[4-chloro-3-({1-[4-(2-cyclopropoxyphenyl)pyridin-3-yl]cyclopropoxy}methyl)phenyl]sulfanyl}-N,2-dimethyl-N-[(2S,3R,4R,5R)-2,3,4,5,6-pentahydroxyhexyl]butanamide] is lower in EC50: 126 to 1000 nM for the first, < 100 nM for the second.

Compared with `CS(=O)(=O)NCCN(CCCSc1ccc(Cl)c(COC2(c3cnccc3-c3ccccc3OC3CC3)CC2)c1)C(=O)[C@@H](O)[C@@H](O)[C@H](O)[C@@H](O)CO` [Compound I-593, (2S,3S,4R,5S)-N-(3-{[4-chloro-3-({1-[4-(2-cyclopropoxyphenyl)pyridin-3-yl]cyclopropoxy}methyl)phenyl]sulfanyl}propyl)-2,3,4,5,6-pentahydroxy-N-(2-methanesulfonamidoethyl) hexanamide], `CC(=O)N(CCSc1ccc(Cl)c(CNC2(c3cnccc3-c3ccccc3OC3CC3)CC2)c1)C[C@H](O)[C@@H](O)[C@H](O)[C@H](O)CO` [Compound I-504, N-[2-({4-chloro-3-[({1-[4-(2-cyclopropoxyphenyl)pyridin-3-yl]cyclopropyl}amino)methyl]phenyl}sulfanyl)ethyl]-N-[(2S,3R,4R,5R)-2,3,4,5,6-pentahydroxyhexyl]acetamide] is higher in EC50: < 100 nM for the first, 126 to 1000 nM for the second.

`O=C(NCCOCCSc1ccc(Cl)c(COC2(c3cnccc3-c3ccccc3OC3COC3)CC2)c1)NC[C@H](O)[C@@H](O)[C@H](O)[C@H](O)CO` [Compound I-493, 1-(2-(2-(4-Chloro-3-((1-(4-(2-(oxetan-3-yloxy)phenyl)pyridin-3-yl)cyclopropoxy)methyl)phenylthio)ethoxy)ethyl)-3-((2S,3R,4R,5R)-2,3,4,5,6-pentahydroxyhexyl)urea] and `Cc1cc(CNC2(c3cnccc3-c3ccccc3OC3CC3)CC2)c(Cl)cn1` [Compound I-34, N-[(5-chloro-2-methylpyridin-4-yl)methyl]-1-[4-(2-cyclopropoxyphenyl)pyridin-3-yl]cyclopropan-1-amine] cannot be ordered by EC50: < 100 nM for the first, < 100 nM for the second.

With `CCc1ccccc1-c1ccncc1C1(NCc2cc(Cl)ccc2Cl)CC1` [Compound I-9, N-[(2,5-dichlorophenyl)methyl]-1-[4-(2-ethylphenyl)pyridin-3-yl]cyclopropan-1-amine] the EC50 was 126 to 1000 nM.
